Assay results: ChEMBL document CHEMBL1671654, “In vivo activity of the pyrrolopyrazolyl-substituted oxazolidinone RWJ-416457” (Antimicrob Agents Chemother, 2009)
Activity calls are given as the source filed them. The rule behind the calls is not given here.

Key:
Staphylococcus aureus [1] = test: Antibacterial activity against methicillin-susceptible Staphylococcus aureus ATCC 13709 infected in sc dosed Swiss Webster mouse administered at 1 to 3 hrs post infection measured after 3 days; format: functional; conditions: ATCC 13709, sc
Staphylococcus aureus [2] = test: Antibacterial activity against community-associated methicillin-resistant Staphylococcus aureus OC8525 infected in sc dosed Swiss Webster mouse administered at 1 to 3 hrs post infection measured after 3 days; format: functional
Staphylococcus aureus [3] = test: Antibacterial activity against methicillin-susceptible Staphylococcus aureus ATCC 13709 infected in iv dosed Swiss Webster mouse administered at 1 to 3 hrs post infection measured after 3 days; format: functional; conditions: ATCC 13709, iv
Staphylococcus aureus [4] = test: Antibacterial activity against community-associated methicillin-resistant Staphylococcus aureus OC8525 infected in iv dosed Swiss Webster mouse administered at 1 to 3 hrs post infection measured after 3 days; format: functional
Staphylococcus aureus [5] = test: Bacteriostatic activity against methicillin-susceptible Staphylococcus aureus Smith ATCC 13709 infected in SKH1 mouse upto 25 mg/kg/day, sc administered post infection measured after 48 hrs; format: functional, organism-based
Staphylococcus aureus [6] = test: Antibacterial activity against community-associated methicillin-resistant Staphylococcus aureus OC8525 infected in SKH1 mouse assessed as log reduction in CFU/g skin up to 25 mg/kg/day, sc administered post infection measured after 48 hrs; format: functional, organism-based

CN[C@H](CC(C)C)C(=O)N[C@H]1C(=O)N[C@@H](CC(N)=O)C(=O)N[C@H]2C(=O)N[C@H]3C(=O)N[C@H](C(=O)N[C@H](C(=O)O)c4cc(O)cc(O)c4-c4cc3ccc4O)[C@H](O)c3ccc(c(Cl)c3)Oc3cc2cc(c3O[C@@H]2O[C@H](CO)[C@@H](O)[C@H](O)[C@H]2O[C@H]2C[C@](C)(N)[C@H](O)[C@H](C)O2)Oc2ccc(cc2Cl)[C@H]1O [VANCOMYCIN]
ED50 (Staphylococcus aureus [1]): 1.7 mg/kg/day | ED50 (Staphylococcus aureus [2]): 12 mg/kg/day | ED50 (Staphylococcus aureus [3]): 0.9 mg/kg/day | ED50 (Staphylococcus aureus [4]): 5.6 mg/kg/day | Activity (Staphylococcus aureus [5]): Active | Activity (Staphylococcus aureus [6]): inactive
